{"source": "patent US7863235B2", "about": "“Method of activating α-amylase with oxidizing agents” (Kao Corporation, priority 2004, dated 2011)", "system": "Duramyl 60T (α-amylase)", "experiment": "Activation of Duramyl 60T by types of oxidizing agents (phadebas method)", "type": "biochemical", "details": "activity of Duramyl 60T (a1) after contact with oxidizing agent powder (b2), ratio 10/1; 25° C., 8 g/m^3, 30 minutes", "method": "One tablet from Neo, Amylase Test “Daiichi” (product number: 701501-005, available from Daiichi Pure Chemicals Co., Ltd.) was added to 5 mL buffer (Britton-Robinson's Buffer, pH 8.5, 50 mM (Koichi Anan et al., Fundamental Biochemical Experimental Method 6 [in Japanese], p. 277, Maruzen Co., Ltd.)) and stirred for about 10 seconds, then 1 mL enzyme solution diluted with 2 mM aqueous calcium chloride was added, and the mixture was reacted at 50° C. for 15 minutes. 1 mL of 0.5 N aqueous sodium hydroxide was added to the solution under stirring to terminate the reaction, and then the reaction solution was centrifuged (400×g, 5 minutes) to precipitate insoluble components, and the supernatant thus obtained by centrifugation was measured for absorbance at 620 nm.\nOne tablet from Neo, Amylase Test “Daiichi” was added to 5 mL buffer (Britton-Robinson's Buffer, pH 8.5, 50 mM (Koichi Anan et al., Fundamental Biochemical Experimental Method 6 [in Japanese], p. 277, Maruzen Co., Ltd.)) and stirred for about 10 seconds. […] The supernatant thus obtained by centrifugation was measured for absorbance at 620 nm.\nThe activity of amylase was calculated from the difference in absorbance between (1) and (2) in a calibration curve as a standard of an International Unit sample enclosed with Neo, Amylase Test “Daiichi”. […]"}
{"smiles": "O.O.O.O.O=BO[O-].[Na+]", "note": "[Sodium perborate•4H2O, sodium perborate.4H2O]", "values": [{"measurement": "Relative activity (%)", "value": 140, "unit": "%"}]}
{"smiles": "O.[Na+].[O-][Cl+3]([O-])([O-])[O-]", "note": "[Sodium perchlorate•1H2O, sodium perchlorate.1H2O]", "values": [{"measurement": "Relative activity (%)", "value": 120, "unit": "%"}]}
